Measurements as given in patent US9554979B2, “Hair care compositions and methods of use” (The Procter & Gamble Company, priority 2011, dated 2017).

Legend:
Assay type in all cases: physicochemical
[1] = Qualitative experimental solubility scoring of apigenin in 32 solvents; parameters: key: 1 = Completely Dissolved; 2 = Very Swollen; 3 = Swollen; 4 = Slightly Swollen; 5 = Hardly Swollen; 6 = Not touched; — = Assignment Unclear
Method: HSPs and the solubility sphere for apigenin are optimized using the fitting method in the software HSPIP version 3.1.06 from Charles M. Hansen Consulting, Hørsholm, Denmark, hansen-solubility.com. Qualitative experimental solubilities for apigenin in 32 diverse potential solvents are determined using the scoring system at the bottom of Table 1. In the fitting function within HSPiP, solvents with scores of 1 and those with scores of 2-5 are categorized as “good” and “bad” solvents, respectively. […] Because the radius can be unbounded, fits with radii larger than 95% of the radius distribution are removed from these 50 trials (≦8.5 MPa^0.5). • 2. Determine the ranges for δD, δP, δH for the remaining fits. • 3. Locate the fit closest to this point using the Ra equation above. • 4. Chose the values for δD, δP, δH from Step 2 for the HSP's and the value of Ra from Step 3 for the radius.

[2] = Experimentally observed apigenin solubility in solubilizing agents and solvents
Description: Non-limiting examples of solubilizing agents, which have suitable Hansen Solubility Parameters and may be used to solubilize apigenin include triethanolamine (CAS No. 102-71-6); diethanolamine (CAS No. 203-868-0); ethanolamine (CAS No. 141-43-5); N-methylformamide (CAS No. 123-39-7); 2-dimethylaminoethanol (CAS No. 203-542-8); 2-dimethylamino-2-propanol (108-16-7); ethylenediamine (CAS No. 107-15-3); 2-amino-2-methyl-1-propanol (CAS No. 124-68-5); laurocapram (CAS No. 59227-89-3); and dimethyl capramide (Spectrasolv, CAS No. 14433-76-2). Non-limiting examples of solvents, which have suitable Hansen Solubility Parameters and may be used in combination with one or more solubilizing agents include dipropyleneglycol (CAS No. 110-98-5); propylene glycol (Hydrolite™ 5, CAS No. […]); butylene glycol (CAS No. 107-88-0); 1,4-butanediol (CAS No. 110-63-4); 3-allyloxy-1,2-propanediol (CAS No. 123-34-2); dipropylene glycol n-butyl ether (CAS No. 29911-28-2); 1,2-hexanediol (CAS No. 6920-22-5); dimethyl isosorbide (Arlasolve™ CAS No. 5306-85-4); ethanol (CAS No. 64-17-5); 1,3-butanediol (CAS No. 107-88-0); 1,3-propanediol (CAS No. 504-63-2); 2,2′-thiodiethanol (CAS No. 111-48-8); and 1,6-hexanediol (CAS No. 629-11-8). Table 2 provides a summary of various solubilizing agents and solvents and their respective HSP values, along with experimentally observed apigenin solubility.

[3] = Apigenin premixtures with various solubilizing agents, solubility; details: organic solvent or mixture, thermodynamic from solid
Method: According to another embodiment of the invention, a process for preparing a hair care composition includes mixing apigenin and a solubilizing agent at a temperature sufficient to allow dissolution of the apigenin in the solubilizing agent to form a premixture; combining the premixture with an aqueous carrier to form the hair care composition; and optionally, adjusting the pH of the hair care composition with acid to within a range from about 3 to about 10. The premixture is prepared by combining apigenin and one or more solubilizing agents. Solubilization energy (e.g., stiffing, sonication, milling, heat, etc.) may be applied to accelerate the dissolution process. For example, a premixture of apigenin in triethanolamine may be prepared by combining apigenin and triethanolamine in a single vessel and heating the mixture to 70° C. while stirring until a clear solution results. According to one aspect of the exemplary method of making the premixture, the combined apigenin and triethanolamine are mixed at 50-100 rpm using a IKA RET CV-S1 mixer. According to another aspect, the combination is mixed at 300-500 rpm using a IKA Eurostar PWR CV-S1 mixer.

For `O=c1cc(-c2ccc(O)cc2)oc2cc(O)cc(O)c12` [apigenin, 5,7-dihydroxy-2-(4-hydroxyphenyl)-4H-1-benzopyran-4-one], the “Solubility Score” value ([1]; in 1,4-Dioxane) was 5, the “Solubility Score” value ([1]; in 1-Butanol) was 4 and the “Solubility Score” value ([1]; in 2-Phenoxy Ethanol) was 4. The “Solubility Score” value ([1]; in 2-Propanol) was 4, the “Solubility Score” value ([1]; in Acetone) was 5 and the “Solubility Score” value ([1]; in Acetonitrile) was 5. For the same compound, the “Solubility Score” value ([1]; in Carbon Tetrachloride) was 6, the “Solubility Score” value ([1]; in Chloroform) was 5 and the “Solubility Score” value ([1]; in Cyclohexane) was 6. The “Solubility Score” value ([1]; in Cyclohexanol) was 4, the “Solubility Score” value ([1]; in Cyclohexanone) was 4 and the “Solubility Score” value ([1]; in Diacetone Alcohol) was 4. For the same compound, the “Solubility Score” value ([1]; in Dichloromethane) was 5, the “Solubility Score” value ([1]; in Dimethyl Formamide (DMF)) was 1 and the “Solubility Score” value ([1]; in Dimethyl Sulfoxide (DMSO)) was 1. For the same compound, the “Solubility Score” value ([1]; in Ethyl Acetate) was 5, the “Solubility Score” value ([1]; in Hexane) was 6 and the “Solubility Score” value ([1]; in Methanol) was 4. For the same compound, the “Solubility Score” value ([1]; in Methyl Ethyl Ketone (MEK)) was 5, the “Solubility Score” value ([1]; in Methyl Isobutyl Ketone (MIBK)) was 5 and the “Solubility Score” value ([1]; in N-Methyl-2-Pyrrolidone (NMP)) was 1. The “Solubility Score” value ([1]; in N-methylformamide) was 1, the “Solubility Score” value ([1]; in Propylene Carbonate) was 5 and the “Solubility Score” value ([1]; in Propylene Glycol Monomethyl Ether) was 2. For the same compound, the “Solubility Score” value ([1]; in Propylene Glycol Monomethyl Ether Acetate) was 5, the “Solubility Score” value ([1]; in Tetrahydrofuran (THF)) was 4 and the “Solubility Score” value ([1]; in Toluene) was 6. The “Solubility Score” value ([1]; in gamma-Butyrolactone (GBL)) was 4, the “Solubility Score” value ([1]; in n-Butyl Acetate) was 5 and the “Solubility Score” value ([1]; in n-Butyl Acrylate) was 5. For the same compound, the “Solubility Score” value ([1]; in p-Xylene) was 6, the Experimental solubility ([2]; in 1,2-hexanediol at 90 C.) was 0.4% at 90 C and the Experimental solubility ([2]; in 1,3-butanediol at 98 C.) was 1.52% at 98 C. For the same compound, the Experimental solubility ([2]; in 1,3-propanediol at 100 C.) was 0.73% at 100 C, the Experimental solubility ([2]; in 1,4-butanediol at 110 C.) was 1.0% at 110 C and the Experimental solubility ([2]; in 1,6-Hexanediol at 137 C.) was 4.12% at 137 C. It also gave an Experimental solubility ([2]; in 2,2′-thiodiethanol at 103 C.) of 0.47% at 103 C, an Experimental solubility ([2]; in 2-amino-2-methyl-1-propanol at 71 C.) of 20.03% at 71 C and an Experimental solubility ([2]; in 2-dimethylamino-2-propanol (CAS 108-16-7) at 21 C.) of 20.18% at 21 C. The Experimental solubility ([2]; in 2-dimethylaminoethanol at 29 C.) was 19.95% at 29 C, the Experimental solubility ([2]; in 3-allyloxy-1,2-propanediol at 120 C.) was 1.0% at 120 C and the Experimental solubility ([2]; in Dimethyl capramide at RT) was 16.0% at RT. For the same compound, the Experimental solubility ([2]; in Ethanol at 21 C. and 50 C.) was 0.32% at 21 C. and 50 C, the Experimental solubility ([2]; in Laurocapram at 21 C.) was 13.0% at 21 C and the Experimental solubility ([2]; in N-methylformamide) was “Ppt upon cooling”. The Experimental solubility ([2]; in butylene glycol at 98 C.) was 1.52% at 98 C, the Experimental solubility ([2]; in diethanolamine at 128 C.) was 20.25% at 128 C and the Experimental solubility ([2]; in dimethyl isosorbide at 100 C.) was 1.54% at 100 C. For the same compound, the Experimental solubility ([2]; in dipropylene glycol n-butyl ether at 90 C.) was 0.6% at 90 C, the Experimental solubility ([2]; in dipropyleneglycol at 115 C.) was 2.19% at 115 C and the Experimental solubility ([2]; in ethanolamine at 76 C.) was 20.31% at 76 C. It also gave an Experimental solubility ([2]; in ethylenediamine at 28 C.) of 20.03% at 28 C, an Experimental solubility ([2]; in propylene glycol (CAS 5343-92-0) at 100 C.) of 0.62% at 100 C and an Experimental solubility ([2]; in triethanolamine at 165 C.) of 12.7% at 165 C. The solubility ([3]; 1-Dimethylamino-2-propanol solution, in 1-Dimethylamino-2-propanol solution, room temp, 300 rpm) was 20.2 mg/mL, the solubility ([3]; 1-dimethylamino-2-propanol, in 1-Dimethylamino-2-propanol solution, room temp, 1500 sm) was 20 mg/mL and the solubility ([3]; 1-dimethylamino-2-propanol/TEA, in 1-Dimethylamino-2-propanol/TEA, room temp, 300-810 rpm) was 17.3 mg/mL. It also gave a solubility ([3]; 1-dimethylamino-2-propanol/ethanolamine, in 1-Dimethylamino-2-propanol/Ethanolamine, room temp, 300 rpm) of 16.6 mg/mL, a solubility ([3]; 1-dimethylamino-2-propanol/ethanolamine/TEA, in 1-Dimethylamino-2-propanol/Ethanolamine/TEA, room temp, 300-500 rpm) of 16.5 mg/mL and a solubility ([3]; 1-dimethylamino-2-propanol/ethylenediamine, in 1-Dimethylamino-2-propanol/Ethylenediamine, room temp, 400-600 rpm) of 20.1 mg/mL. For the same compound, the solubility ([3]; 1-methylimidazole, 82 °C, in 1-Methylimidazole, 100 rpm) was 20.4 mg/mL, the solubility ([3]; 2-amino-2-methyl-1-propanol, 71 °C, in 2-amino-2-methyl-1-propanol, 400 rpm) was 20 mg/mL and the solubility ([3]; 2-amino-2-methyl-1-propanol, 71 °C, in 2-amino-2-methyl-1-propanol, 450 rpm) was 14.8 mg/mL. For the same compound, the solubility ([3]; 2-dimethylaminoethanol, 29 °C, in 2-Dimethylaminoethanol, 300 rpm) was 19.9 mg/mL, the solubility ([3]; 2-dimethylaminoethanol, in 2-Dimethylaminoethanol, room temp, 300 rpm) was 20.2 mg/mL and the solubility ([3]; Dimethyl capramide, in Dimethyl capramide, Room temp, 400 rpm) was 16 mg/mL. The solubility ([3]; N-methylformamide, 101 °C, in N-Methylformamide, 400 rpm) was 13.7 mg/mL, the solubility ([3]; TEA (triethanolamine), 169 °C, in TEA, 450 rpm (synthetic apigenin)) was 14.7 mg/mL and the solubility ([3]; TEA (triethanolamine), in TEA, room temp, 450-590 rpm) was 20 mg/mL. The solubility ([3]; TEA/1-Dimethylamino-2-propanol, in TEA/1-Dimethylamino-2-propanol, room temp, 350-450 rpm) was 17 mg/mL, the solubility ([3]; TEA/1-Dimethylamino-2-propanol/Ethylenediamine, in TEA/1-Dimethylamino-2-propanol/Ethylenediamine, room temp, 330-600 rpm) was 20.6 mg/mL and the solubility ([3]; TEA/2-Dimethylaminoethanol/1-Dimethylamino-2-propanol, in TEA/2-Dimethylaminoethanol/1-Dimethylamino-2-propanol, room temp, 330-400, 1500 sm) was 15 mg/mL. For the same compound, the solubility ([3]; TEA/2-Dimethylaminoethanol/1-Dimethylamino-2-propanol, in TEA/2-Dimethylaminoethanol/1-Dimethylamino-2-propanol, room temp, 1500 sm) was 15 mg/mL, the solubility ([3]; Triethylene glycol, 156 °C, in Triethylene glycol, 300 rpm) was 6.11 mg/mL and the solubility ([3]; diethanolamine, 128 °C, in Diethanolamine, 550 rpm) was 20.2 mg/mL. It also gave a solubility ([3]; ethanolamine, 29 °C, in Ethanolamine, 350-500 rpm) of 20.1 mg/mL, a solubility ([3]; ethanolamine, 76 °C, in Ethanolamine, 300 rpm) of 20.3 mg/mL and a solubility ([3]; ethanolamine, 76 °C, in Ethanolamine, 400 rpm (synthetic apigenin)) of 20.2 mg/mL. The solubility ([3]; ethanolamine, in Ethanolamine, room temp, 350-740 rpm) was 20.2 mg/mL, the solubility ([3]; ethanolamine/TEA, 29 °C, in Ethanolamine/TEA, 300-600 rpm) was 18 mg/mL and the solubility ([3]; ethanolamine/TEA, in Ethanolamine/TEA, room temp, 350-500 rpm) was 16 mg/mL. It also gave a solubility ([3]; ethylenediamine, 28 °C, in Ethylenediamine, 320 rpm) of 20 mg/mL, a solubility ([3]; ethylenediamine, in Ethylenediamine, room temp, 320 rpm) of 20.2 mg/mL and a solubility ([3]; laurocapram, 98%, 140 °C, in Laurocapram, 500-600 rpm) of 14 mg/mL. It also gave a solubility ([3]; laurocapram, 98%, in Laurocapram, room temp, 500-600 rpm) of 13.9 mg/mL and a solubility ([3]; pyridine, in Pyridine, room temp, 300 rpm) of 15.8 mg/mL.
